Patent US12685726B2, “Sulfoximines as inhibitors of NaV1.8” (Gruenenthal GmbH, priority 2022, dated 2026)

Molecular target: T1, human NaV 1.8 (Homo sapiens, UniProt Q9Y5Y9)
T1 construct: expressed in transfected cells; host or cells: HEK (recombinant cell line)
Assay: Automated whole-cell patch clamp (Qube384) voltage-clamp recordings of sodium currents in HEK-NaV1.8 cell line
Assay type: cell-based
Settings: read-out: Potency category (human NaV 1.8 IC50)
Protocol: Electrophysiology: Voltage-Clamp Recordings
The following NaV1.8 recombinant cell line was used for recordings: HEK-NaV1.8 (NM_006514.1) with b3 (NM_018400.3).
Sodium currents were measured using the patch clamp technique in the whole-cell configuration using the Qube384 (Sophion A/S, Copenhagen, Denmark) automated voltage clamp platform. “Multi hole” plates were used for the cell line expressing NaV1.8 while “single hole” plates were used for the recombinant cell lines expressing the other subtypes. Appropriate filters (for minimum seal resistance and minimum current size) and series resistance compensation (for high quality sodium channel recordings) were applied. Data was collected at ambient room temperature or 19° C.
The recording extracellular solution contained (in mM): NaCl 145 mM, KCl 4 mM, CaCl2 2 mM, MgCl2 1 mM, HEPES 10 mM, Glucose 10 mM, pH 7.4 (NaOH). The intracellular recording solution contained (in mM): CsF 120 mM, CsCl 20 mM, NaCl 10 mM, EGTA 10 mM, HEPES 10 mM, pH 7.2 (CsOH). Currents were recorded at 25 kHz sampling frequency and filtered at 5 kHz. Series resistance compensation was applied at 65%.
Vehicle (VEH) is the control condition where cells are exposed to 0.3% DMSO without compound. All runs include VEH controls being exposed to the same voltage protocols to assess non-compound related phenomena such as run down and then used to isolate compound dependent effects on currents.
To check for state-dependent inhibition, the following voltage-sequence was applied every 20 seconds:
From a resting membrane potential of −120 mV, the first test pulse (P1; 20 ms to −10 mV) was applied to check for channels in the Resting State followed by a brief recovery (100 ms to −120 mV), then holding the membrane voltage to V1/2 (4 seconds at voltage to obtain half the channel at Rest and half Inactivated) with a subsequent second test pulse (P2; 20 ms to −10 mV) to check for channels in the Inactivated State, followed by another brief recovery (20 ms to −120 mV) and a final third test pulse (P3; 20 ms to −10 mV) to check for recovered channels.
To check for frequency-dependent inhibition, a 10 Hz protocol and a 20 Hz protocol were applied; namely,
From a resting membrane potential of −120 mV, 40-pulses (10 ms to −10 mV) was applied at 10 Hz (at 100 ms between pulses) and then at 20 Hz (at 50 ms between pulses).
Each parameter was recorded (P1, P2, P3, P40 from 10 Hz and P40 from 20 Hz) during a control period (lasting 5 minutes) when establishing the baseline and during compound period (lasting ~12 minutes) when test compound (or vehicle) was applied. For each parameter, the value at the end of the compound period was normalized to the vehicle baseline; as follows
To adjust for any variance in the Na^+ current signal during the compound period (owing to cumulative inactivation independent of compound or shifts in biophysics over time), a dedicated segment of the recording wells in each 384 plate were dedicated to having only vehicle exposure. These vehicle-only recordings were used to correct for any apparent “run-up” or “run-down” in the experiment.
The adjusted inhibition was calculated as follows: […]
Percent inhibition was determined and IC50 values were calculated using a 4 parameter logistic model within XLFit Software (IDBS, Boston MA): F
[formula] where A and B are the maximal and minimum inhibition respectively, C is the IC50 concentration and D is the (Hill) slope.

T1 sequence (Q9Y5Y9 whole entry): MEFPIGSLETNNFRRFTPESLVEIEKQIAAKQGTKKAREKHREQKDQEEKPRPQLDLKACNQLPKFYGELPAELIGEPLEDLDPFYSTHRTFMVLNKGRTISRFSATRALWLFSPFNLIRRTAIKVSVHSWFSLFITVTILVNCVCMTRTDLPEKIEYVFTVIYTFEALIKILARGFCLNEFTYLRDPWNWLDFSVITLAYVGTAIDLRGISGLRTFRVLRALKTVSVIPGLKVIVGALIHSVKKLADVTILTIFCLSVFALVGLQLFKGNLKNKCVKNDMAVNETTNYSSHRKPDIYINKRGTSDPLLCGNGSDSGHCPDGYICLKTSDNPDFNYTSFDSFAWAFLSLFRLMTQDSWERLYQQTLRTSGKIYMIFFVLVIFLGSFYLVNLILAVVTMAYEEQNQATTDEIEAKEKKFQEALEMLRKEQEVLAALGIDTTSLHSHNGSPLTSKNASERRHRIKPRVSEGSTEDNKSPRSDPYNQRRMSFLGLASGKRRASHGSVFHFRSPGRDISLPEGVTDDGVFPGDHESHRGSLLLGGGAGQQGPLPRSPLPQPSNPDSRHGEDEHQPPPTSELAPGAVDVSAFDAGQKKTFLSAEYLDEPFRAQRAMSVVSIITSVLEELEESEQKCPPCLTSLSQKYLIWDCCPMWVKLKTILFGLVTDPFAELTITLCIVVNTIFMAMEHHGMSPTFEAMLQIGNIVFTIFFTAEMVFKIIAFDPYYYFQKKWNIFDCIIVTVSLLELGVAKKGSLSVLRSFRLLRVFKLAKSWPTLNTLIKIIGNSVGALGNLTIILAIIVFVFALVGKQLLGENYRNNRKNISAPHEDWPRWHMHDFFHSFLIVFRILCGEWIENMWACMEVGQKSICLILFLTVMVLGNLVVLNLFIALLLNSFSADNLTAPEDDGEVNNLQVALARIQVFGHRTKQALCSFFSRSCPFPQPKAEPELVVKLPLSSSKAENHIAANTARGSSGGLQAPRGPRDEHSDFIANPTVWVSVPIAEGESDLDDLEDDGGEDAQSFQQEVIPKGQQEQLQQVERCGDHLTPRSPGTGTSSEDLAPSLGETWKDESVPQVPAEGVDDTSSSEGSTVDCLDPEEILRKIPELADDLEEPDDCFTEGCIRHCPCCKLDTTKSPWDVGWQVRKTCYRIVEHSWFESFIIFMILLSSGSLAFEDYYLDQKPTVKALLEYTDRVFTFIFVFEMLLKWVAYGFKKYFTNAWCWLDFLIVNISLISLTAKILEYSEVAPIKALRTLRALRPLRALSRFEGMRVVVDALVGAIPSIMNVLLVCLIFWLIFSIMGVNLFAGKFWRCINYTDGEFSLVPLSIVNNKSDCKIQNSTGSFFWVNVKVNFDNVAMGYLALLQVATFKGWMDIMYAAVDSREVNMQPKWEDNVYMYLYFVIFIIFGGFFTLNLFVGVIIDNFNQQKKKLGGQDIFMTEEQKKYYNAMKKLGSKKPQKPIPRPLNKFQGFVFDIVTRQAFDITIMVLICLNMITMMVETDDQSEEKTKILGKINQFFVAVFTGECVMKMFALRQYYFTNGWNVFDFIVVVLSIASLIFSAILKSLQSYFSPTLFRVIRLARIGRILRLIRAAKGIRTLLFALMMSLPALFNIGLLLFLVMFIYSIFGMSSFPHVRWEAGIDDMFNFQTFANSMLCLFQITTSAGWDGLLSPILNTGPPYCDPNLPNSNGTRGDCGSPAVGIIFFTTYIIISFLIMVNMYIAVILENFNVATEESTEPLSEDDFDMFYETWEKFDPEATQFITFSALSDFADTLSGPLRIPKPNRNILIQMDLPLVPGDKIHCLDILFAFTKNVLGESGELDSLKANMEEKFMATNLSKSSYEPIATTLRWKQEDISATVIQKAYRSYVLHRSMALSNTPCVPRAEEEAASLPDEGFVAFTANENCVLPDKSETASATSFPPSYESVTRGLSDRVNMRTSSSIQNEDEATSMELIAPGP

Row | IC50 [nM] | SMILES
1 | ≤ 100 | CC1(Cn2nc(C3CC3F)c(C(F)(F)F)c2C(=O)Nc2ccnc(S(C)(=N)=O)c2)CC(F)(F)C1 (racemic) [Example 62a, 1-((3,3-Difluoro-1-methylcyclobutyl)methyl)-3-(2-fluorocyclopropyl)-N-(2-(S-methylsulfonimidoyl)pyridin-4-yl)-4-(trifluoromethyl)-1H-pyrazole-5-carboxamide]
2 | ≤ 100 | CS(=N)(=O)c1cc(NC(=O)c2c(C(F)(F)F)c(C3CC3)nn2CC23CC2CC(F)(F)C3)ccn1 (single isomer, unassigned) [Example 95a, 3-Cyclopropyl-1-((3,3-difluorobicyclo[3.1.0]hexan-1-yl)methyl)-N-(2-(S-methylsulfonimidoyl)pyridin-4-yl)-4-(trifluoromethyl)-1H-pyrazole-5-carboxamide]
3 | ≤ 100 | CC1(Cn2nc(C3CC3)c(C(F)(F)F)c2C(=O)Nc2ccnc(S(C)(=O)=NC#N)c2)CC(F)(F)C1 (single isomer, unassigned) [Example 142b, N-(2-(N-Cyano-S-methylsulfonimidoyl)pyridin-4-yl)-3-cyclopropyl-1-((3,3-difluoro-1-methylcyclobutyl)methyl)-4-(trifluoromethyl)-1H-pyrazole-5-carboxamide]
4 | 100 to 1000 | CC(=O)N1CC2(CCC2Cn2nc(C3CC3)c(C(F)(F)F)c2C(=O)Nc2ccnc(S(C)(=N)=O)c2)C1 (single isomer, unassigned) [Example 140b, 1-((2-Acetyl-2-azaspiro[3.3]heptan-5-yl)methyl)-3-cyclopropyl-N-(2-(S-methylsulfonimidoyl)pyridin-4-yl)-4-(trifluoromethyl)-1H-pyrazole-5-carboxamide]
5 | ≤ 100 | CC1(Cn2nc(C(C)(F)F)c(C(F)(F)F)c2C(=O)Nc2ccnc(S(C)(=N)=O)c2)CC(F)(F)C1 (single isomer, unassigned) [Example 75b, 1-((3,3-difluoro-1-methylcyclobutyl)methyl)-3-(1,1-difluoroethyl)-N-(2-(S-methylsulfonimidoyl)pyridin-4-yl)-4-(trifluoromethyl)-1H-pyrazole-5-carboxamide]
6 | ≤ 100 | CC1(Cn2nc(C34CC(F)(C3)C4)c(C(F)(F)F)c2C(=O)Nc2ccc(F)c(S(C)(=N)=O)c2)CC(F)(F)C1 (single isomer, unassigned) [Example 141a, 1-((3,3-Difluoro-1-methylcyclobutyl)methyl)-N-(4-fluoro-3-(S-methylsulfonimidoyl)phenyl)-3-(3-fluorobicyclo[1.1.1]pentan-1-yl)-4-(trifluoromethyl)-1H-pyrazole-5-carboxamide]
7 | ≤ 100 | CC1(Cn2nc(C3CCCC3)c(C(F)(F)F)c2C(=O)Nc2ccnc(S(C)(=N)=O)c2)CC(F)(F)C1 (single isomer, unassigned) [Example 59a, 3-Cyclopentyl-1-((3,3-difluoro-1-methylcyclobutyl)methyl)-N-(2-(S-methylsulfonimidoyl)pyridin-4-yl)-4-(trifluoromethyl)-1H-pyrazole-5-carboxamide]
8 | ≤ 100 | COC1(c2nn(CC3(C)CC(F)(F)C3)c(C(=O)Nc3ccnc(S(C)(=N)=O)c3)c2C(F)(F)F)CC1 (single isomer, unassigned) [Example 71b, 1-((3,3-difluoro-1-methylcyclobutyl)methyl)-3-(1-methoxycyclopropyl)-N-(2-(S-methylsulfonimidoyl)pyridin-4-yl)-4-(trifluoromethyl)-1H-pyrazole-5-carboxamide]
9 | ≤ 100 | CC1(Cn2nc(C34CC(F)(C3)C4)c(C(F)(F)F)c2C(=O)Nc2ccnc(S(C)(=N)=O)c2)CC(F)(F)C1 (single isomer, unassigned) [Example 110a, 1-((3,3-Difluoro-1-methylcyclobutyl)methyl)-3-(3-fluorobicyclo[1.1.1]pentan-1-yl)-N-(2-(S-methylsulfonimidoyl)pyridin-4-yl)-4-(trifluoromethyl)-1H-pyrazole-5-carboxamide]
10 | ≤ 100 | CC1(Cn2nc(C3(C(F)F)CC3)c(C(F)(F)F)c2C(=O)Nc2ccnc(S(C)(=N)=O)c2)CC(F)(F)C1 (single isomer, unassigned) [Example 145b, 1-((3,3-Difluoro-1-methylcyclobutyl)methyl)-3-(1-(difluoromethyl)cyclopropyl)-N-(2-(S-methylsulfonimidoyl)pyridin-4-yl)-4-(trifluoromethyl)-1H-pyrazole-5-carboxamide]
11 | ≤ 100 | COC12CC(c3nn(CC4(C)CC(F)(F)C4)c(C(=O)Nc4ccnc(S(C)(=N)=O)c4)c3C(F)(F)F)(C1)C2 (stereo not drawn) [Example 122, 1-((3,3-Difluoro-1-methylcyclobutyl)methyl)-3-(3-methoxybicyclo[1.1.1]pentan-1-yl)-N-(2-(S-methylsulfonimidoyl)pyridin-4-yl)-4-(trifluoromethyl)-1H-pyrazole-5-carboxamide]
12 | ≤ 100 | CS(=N)(=O)c1cc(NC(=O)c2c(C(F)(F)F)c(C3CC3)nn2CC2CCC(F)(F)C2)ccn1 (single isomer, unassigned) [Example 7a, 3-cyclopropyl-1-((3,3-difluorocyclopentyl)methyl)-N-(2-(S-methylsulfonimidoyl)pyridin-4-yl)-4-(trifluoromethyl)-1H-pyrazole-5-carboxamide]
13 | ≤ 100 | CC1(Cn2nc(C3CC4(CC4)C3)c(C(F)(F)F)c2C(=O)Nc2ccnc(S(C)(=N)=O)c2)CC(F)(F)C1 (single isomer, unassigned) [Example 61b, 1-((3,3-Difluoro-1-methylcyclobutyl)methyl)-N-(2-(S-methylsulfonimidoyl)pyridin-4-yl)-3-(spiro[2.3]hexan-5-yl)-4-(trifluoromethyl)-1H-pyrazole-5-carboxamide]
14 | ≤ 100 | CC1(Cn2nc(C3CC3)c(C(F)(F)F)c2C(=O)Nc2cncc(S(C)(=N)=O)c2)CC(F)(F)C1 (single isomer, unassigned) [Example 46b, 3-cyclopropyl-1-((3,3-difluoro-1-methylcyclobutyl)methyl)-N-(5-(S-methylsulfonimidoyl)pyridin-3-yl)-4-(trifluoromethyl)-1H-pyrazole-5-carboxamide]
15 | ≤ 100 | CC1(Cn2nc(C3(F)CC3)c(C(F)(F)F)c2C(=O)Nc2cccc(S(C)(=O)=NC(=O)C3COC3)c2)CC(F)(F)C1 (single isomer, unassigned) [Example 150b, 1-((3,3-Difluoro-1-methylcyclobutyl)methyl)-3-(1-fluorocyclopropyl)-N-(3-(S-methyl-N-(oxetane-3-carbonyl)sulfonimidoyl)phenyl)-4-(trifluoromethyl)-1H-pyrazole-5-carboxamide]
16 | ≤ 100 | CC1(Cn2nc(C3CC3)c(C(F)(F)F)c2C(=O)Nc2cnnc(S(C)(=N)=O)c2)CC(F)(F)C1 (single isomer, unassigned) [Example 47a, 3-cyclopropyl-1-((3,3-difluoro-1-methylcyclobutyl)methyl)-N-(6-(S-methylsulfonimidoyl)pyridazin-4-yl)-4-(trifluoromethyl)-1H-pyrazole-5-carboxamide]
17 | ≤ 100 | CC1(Cn2nc(C3(C(F)(F)F)CC3)c(C(F)(F)F)c2C(=O)Nc2ccnc(S(C)(=N)=O)c2)CC(F)(F)C1 (single isomer, unassigned) [Example 144b, 1-((3,3-Difluoro-1-methylcyclobutyl)methyl)-N-(2-(S-methylsulfonimidoyl)pyridin-4-yl)-4-(trifluoromethyl)-3-(1-(trifluoromethyl)cyclopropyl)-1H-pyrazole-5-carboxamide]
18 | 1000 to 10000 | CS(=N)(=O)c1cc(NC(=O)c2c(C(F)(F)F)c(C3CC3)nn2CC2CCC23CNC3)ccn1 (single isomer, unassigned) [Example 153d, 1-((2-Azaspiro[3.3]heptan-5-yl)methyl)-3-cyclopropyl-N-(2-(S-methylsulfonimidoyl)pyridin-4-yl)-4-(trifluoromethyl)-1H-pyrazole-5-carboxamide]
